Results reported in patent US4311709A, “Loweralkyl substituted diphenyl polyamine as an antimicrobial agent” (priority 1979, dated 1982).

Legend:
[1] = test system: Gram positive, gram negative bacteria, certain yeasts and various fungi; assay: Antimicrobial spectrum: bacteria, yeasts and fungi destroyed or rendered static; assay type: cell-based
[2] = test system: gram negative pathogens such as Pseudomonas species; conditions: background statement; cited from earlier work
E. coli [3] = assay: MIC on Mueller-Hinton agar plates, mastitis pathogens; assay type: cell-based; conditions: Escherichia coli; 18-24 hours at 37° C.; less than one colony per plate; duplicate
Protocol: (§1) The products of this inventions have a broad inhibitory spectrum and high potency. One test system employed seven different mastitis pathogens inoculated onto separate Mueller-Hinton agar plates which contained 1, 5, 10, 20, 40, 80 or 100 mcg./ml. of the cited dihydrochloride final concentration. After incubation for 18-24 hours at 37° C., the minimal inhibitory concentration was determined as that showing less than one colony per plate; all assays were made in duplicate. The MIC's in mcg./ml. observed were: Streptococcus dysgalactiae, 1; Streptococcus uberis, 1; Streptococcus agalactiae, 1; S. aureus, 5; E. coli, 5; Klebsiella sp., 5; and Pseudomonas aeruginosa, 80.

Klebsiella sp. [4] = assay: as above; assay type: cell-based; conditions: 18-24 hours at 37° C., less than one colony per plate, duplicate
Protocol: as §1

Pseudomonas aeruginosa [5] = assay: as above; assay type: cell-based; conditions: 18-24 hours at 37° C., less than one colony per plate, duplicate
Protocol: as §1

S. aureus [6] = assay: as above; assay type: cell-based; conditions: Staphylococcus aureus; 18-24 hours at 37° C.; less than one colony per plate; duplicate
Protocol: as §1

Streptococcus agalactiae [7] = assay: as above; assay type: cell-based; conditions: 18-24 hours at 37° C., less than one colony per plate, duplicate
Protocol: as §1

[8] = test system: Streptococcus dysgalactiae; assay: as above; assay type: cell-based; conditions: 18-24 hours at 37° C., less than one colony per plate, duplicate
Protocol: as §1

Streptococcus uberis [9] = assay: as above; assay type: cell-based; conditions: 18-24 hours at 37° C., less than one colony per plate, duplicate
Protocol: as §1

E. coli [10] = assay: Excised cow's udder teat dip in vitro (modified National Mastitis Council's Protocol A); conditions: Escherichia coli, 10 min, 0.5% solution
Protocol: (§2) Additional efficacy studies were made using a laboratory modification of the National Mastitis Council's Protocol A with excised cow's udder in vitro. Prepared teats were dipped to a depth of approximately 15 mm. into a skim milk inoculum containing the test bacteria and then allowed to drain for 5 minutes. Then each teat was dipped into a distilled water solution of the cited dihydrochloride salt using concentrations which ranged from 0.05 up to 1% to a depth of 25 mm. After a period of 10 minutes the removal of any surviving organisms was accomplished by rinsing the teats using 5 ml. of a quenching solution of lecithin (0.05%), tween-80 (0.5%) and sodium thiosulfate (0.5%). The rinse solutions were diluted in sterile saline, plated on an appropriate medium and incubated at 37° C. for 18-20 hours. Colonies were then counted for only those plates with 15-300 colonies, and all dilutions were plated in duplicate. The percent reduction in microorganisms on the teat surfaces was determined using as controls the inoculated teats dipped in sterile distilled water. […] A 0.1% solution caused a 99% reduction for Pseudomonas aeruginosa.

Klebsiella sp. [11] = assay: as above; conditions: 10 min, 0.5% solution
Protocol: as §2

Pseudomonas aeruginosa [12] = assay: as above; conditions: 10 min
Protocol: as §2

S. aureus [13] = assay: as above; conditions: Staphylococcus aureus, 10 min, 0.5% solution
Protocol: as §2

Streptococcus agalactiae [14] = assay: as above; conditions: 10 min, 0.5% solution
Protocol: as §2

[15] = test system: Streptococcus dysgalactiae; assay: as above; conditions: 10 min, 0.5% solution
Protocol: as §2

Streptococcus uberis [16] = assay: as above; conditions: 10 min, 0.5% solution
Protocol: as §2

in vivo = conditions: mouse, mice, oral, 100 mg./ml. in 1% aqueous methylcellulose (100 cps), read-out: acute oral LD50
From the text: (§3) Thus instead of contributing to or initiating skin cracking and drying the diaminopropanol derivative should promote healing of damaged skin areas whether inflicted mechanically, by weather conditions or as the result of exposure to toxic chemical treatments.

[17] = test system: intact or abraded dorsal skin of shaved areas (rabbits); assay: Skin irritation, occlusive dressing 24 hours; assay type: in vivo
From the text: as §3

eye = conditions: in vivo
From the text: as §3

[18] = Residues in milk after application to the udder; assay type: in vivo, cow
From the text: The sensitivity of the analytical method employed met the stringent criteria set by various governmental agencies.

[19] = Toxicity and skin irritation, overall; assay type: in vivo
From the text: as §3

CC(C)c1ccc(CCC(CCc2ccc(C(C)C)cc2)NCC(O)CN)cc1 (stereo not shown) [Example 1, 1-Amino-3-{{3-[4-(1-methylethyl)phenyl]-1-{2-[4-(1-methylethyl)phenyl]ethyl}propyl}amino]-2-propanol]
concentrations by which many are controlled ([1]; many organisms): one to one-hundred | concentrations by which bacteria, yeasts and fungi are destroyed or rendered static ([1]; overall range): less than one to one-thousand

[H]/N=C(\N/C(=N/[H])NCCCCCCNC(=N)NC(=N)Nc1ccc(Cl)cc1)Nc1ccc(Cl)cc1 [chlorhexidine]
effectiveness against gram negative pathogens [2]: poorly effective

CC(C)c1ccc(CCC(CCc2ccc(C(C)C)cc2)NCC(O)CN)cc1.Cl.Cl.O (stereo not shown) [cited dihydrochloride, 1-amino-3-{{3-[4-(1-methylethyl)phenyl]-1-{2-[4-(1-methylethyl)phenyl]ethyl}propyl}amino]-2-propanol dihydrochloride monohydrate]
MIC (E. coli [3]): 5 µg/mL | MIC (Klebsiella sp. [4]): 5 µg/mL | MIC (Pseudomonas aeruginosa [5]): 80 µg/mL | MIC (S. aureus [6]): 5 µg/mL | MIC (Streptococcus agalactiae [7]): 1 µg/mL | MIC [8]: 1 µg/mL | MIC (Streptococcus uberis [9]): 1 µg/mL | killing at 0.5 % (E. coli [10]): > 99.8% | killing at 0.5 % (Klebsiella sp. [11]): > 99.8% | killing at 0.1 % (Pseudomonas aeruginosa [12]; 0.1% solution, read-out: reduction): 99% | killing at 0.5 % (Pseudomonas aeruginosa [12]; 0.5% solution): > 99.8% | killing at 0.5 % (S. aureus [13]): 98 to 99.8% | killing at 0.5 % (Streptococcus agalactiae [14]): > 99.8% | killing at 0.5 % [15]: 98 to 99.8% | killing at 0.5 % (Streptococcus uberis [16]): > 99.8% | LD50 (in vivo): 1300 mg/kg | skin irritation ([17]; 1% solution in distilled water, intact or abraded skin, 24 hours occlusive, observed two weeks): essentially non-irritating | skin irritation ([17]; 5% in distilled water): slightly irritating | signs of skin irritation remaining ([17]; 5% in distilled water, after seven days): no signs remaining after seven days | eye irritation (eye): very slightly irritating | time for eye effects to disappear (eye): ≤ 24 h | residues in the milk ([18]; 1% solution applied to the udder, preliminary experiments): no detectable residues | skin penetration ([18]; bovine): appears unable to penetrate the skin | skin irritation, overall ([19]; in vivo): practically non-irritating on skin | toxicity ([19]; overall statement): low toxicity
